Measurements from US6596308B2, “Controlled release pharmaceutical composition” (Kos Pharmaceuticals, Incorporated, priority 2001, dated 2003).

Assay: dissolution release of hard shell capsule formulations, USP Basket Method (Apparatus 1)

## CC[C@H](C)C(=O)O[C@H]1C[C@@H](C)C=C2C=C[C@H](C)[C@H](CC[C@@H]3C[C@@H](O)CC(=O)O3)[C@H]21 [lovastatin]
Precirol ATO5 capsule systems containing the fast hydrating Methocel polymers, water with 1% sodium dodecyl sulfate, 37° C., 100 RPM
  time in which lovastatin was completely released (in vitro release, FIG. 2): 4 h
Precirol ATO5 capsule systems containing the non-hydrating Ethocel, water with 1% sodium dodecyl sulfate, 37° C., 100 RPM
  period over which sustained release of lovastatin was obtained (in vitro release, FIG. 2): 24 h
lovastatin, Compritol 888 capsule system, fastest hydrating polymers gave faster release
  rank order of release rate by cellulose polymer (FIG. 1): Methocel K>Methocel E>Ethocel
lovastatin, compritol, Methocel K100M vs Ethocel P20
  release of lovastatin by type of cellulosic polymer, compritol formulation: released considerably faster from a formulation of Methocel K100M than Ethocel P20
lovastatin/precirol, Methocel K100M vs Ethocel P20
  release of lovastatin by type of cellulosic polymer, precirol formulation: faster when the formulation contains Methocel K100M than Ethocel P20
Same cellulose (methocel) component, prolonged period of about 24 hours
  release of lovastatin by type of high melting fatty acid ester: fastest with Precirol AT05, slowest with Compritol 888
